Test results as given in US20140045824A1, “METHOD FOR PRODUCING COMPLEX CRYSTAL AND METHOD FOR SCREENING COMPLEX CRYSTAL” (priority 2011, published 2014).

Columns and labels:
Assay type in all cases: physicochemical
[1] = Cocrystal screening by slurry method (Comparative Examples 4-1 to 4-6), powder X-ray diffraction; set-up: key: A cocrystal was completely formed.; B: A mixture of a cocrystal and the host compound or guest compound was formed.; C: A cocrystal was not formed (a mixture of the host compound and the guest compound was formed).; —: A residue was not obtained; conditions: host carbamazepine, slurry in tetrahydrofuran, room temperature 7 days
Protocol: (§1) 3 mg (0.0127 mmoles) of carbamazepine and a guest compound shown in Table 4 in an equimolar amount (0.0127 mmoles) to carbamazepine were weighed and put into a glass container, to which was then added 60 μL of water. These were shaken at room temperature for 7 days, and the obtained residues were subjected to powder X-ray diffraction measurement. 3 mg (0.0127 mmoles) of carbamazepine and a guest compound shown in Table 4 in an equimolar amount (0.0127 mmoles) to carbamazepine were weighed and put into a glass container, to which was then added 60 μL of ethanol. These were shaken at room temperature for 7 days, and the obtained residues were subjected to powder X-ray diffraction measurement. 3 mg (0.0127 mmoles) of carbamazepine and a guest compound shown in Table 4 in an equimolar amount (0.0127 mmoles) to carbamazepine were weighed and put into a glass container, to which was then added 60 μL of tetrahydrofuran. These were shaken at room temperature for 7 days, and the obtained residues were subjected to powder X-ray diffraction measurement. 3 mg (0.0127 mmoles) of carbamazepine and a guest compound shown in Table 4 in an equimolar amount (0.0127 mmoles) to carbamazepine were weighed and put into a glass container, to which was then added 60 μL of toluene. These were shaken at room temperature for 7 days, and the obtained residues were subjected to powder X-ray diffraction measurement. 3 mg (0.0127 mmoles) of carbamazepine and a guest compound shown in Table 4 in an equimolar amount (0.0127 mmoles) to carbamazepine were weighed and put into a glass container, to which was then added 60 μL of ethyl acetate. These were shaken at room temperature for 7 days, and the obtained residues were subjected to powder X-ray diffraction measurement. 3 mg (0.0127 mmoles) of carbamazepine and a guest compound shown in Table 4 in an equimolar amount (0.0127 mmoles) to carbamazepine were weighed and put into a glass container, to which was then added 60 μL of acetone. These were shaken at room temperature for 7 days, and the obtained residues were subjected to powder X-ray diffraction measurement.

[2] = Cocrystal screening by mixing and grinding method (Comparative Example 5); set-up: key: A cocrystal was completely formed.; B: A mixture of a cocrystal and the host compound or guest compound was formed.; C: A cocrystal was not formed (a mixture of the host compound and the guest compound was formed); conditions: host carbamazepine, equimolar guest, mixed/ground in agate mortar
Source text: (§2) Carbamazepine and a guest compound shown in Table 4 in an equimolar amount to carbamazepine were weighed and mixed using an agate mortar. At that time, particles having a large size to an extent that they could be distinguished through visual inspection were grinded on the agate mortar. The obtained solids were subjected to powder X-ray diffraction measurement and thermal analysis.

[3] = Cocrystal screening by slurry method (Comparative Examples 4-1 to 4-6), powder X-ray diffraction; set-up: key: A cocrystal was completely formed.; B: A mixture of a cocrystal and the host compound or guest compound was formed.; C: A cocrystal was not formed (a mixture of the host compound and the guest compound was formed); conditions: host carbamazepine
Protocol: as §1

[4] = Cocrystal screening by heating method without menthol (Comparative Example 6); set-up: key: A cocrystal was completely formed.; B: A mixture of a cocrystal and the host compound or guest compound was formed.; C: A cocrystal was not formed (a mixture of the host compound and the guest compound was formed); conditions: host carbamazepine, equimolar guest, no menthol, 4 hours at 80° C.
Protocol: as §2, with “10 mg of this mixed powder was weighed and put into a test tube and heated for 4 hours in an oven at 80° C., and the” for “The”

[5] = Cocrystal screening by heat melting 1-menthol (Example 2), powder X-ray diffraction and thermal analysis; set-up: key: A cocrystal was completely formed.; B: A mixture of a cocrystal and the host compound or guest compound was formed.; C: A cocrystal was not formed (a mixture of the host compound and the guest compound was formed); conditions: host carbamazepine, equimolar guest, 1-menthol added, 10 hours at 80° C.
Protocol: Carbamazepine and a guest compound shown in Table 4 in an equimolar amount to carbamazepine were weighed and mixed using an agate mortar. […] Thereafter, the obtained mixed powder of carbamazepine, the guest compound, and 1-menthol was heated for 10 hours in an oven at 80° C., and the obtained solids were subjected to powder X-ray diffraction measurement and thermal analysis.

- Cocrystal formation, Comparative Example 4-3 [1]: —
- Cocrystal formation, Comparative Example 5 [2]: C
- Cocrystal formation, Comparative Example 4-6 ([3]; slurry in acetone, room temperature 7 days): C
- Cocrystal formation, Comparative Example 4-2 ([3]; slurry in ethanol, room temperature 7 days): C
- Cocrystal formation, Comparative Example 4-5 ([3]; slurry in ethyl acetate, room temperature 7 days): A
- Cocrystal formation, Comparative Example 4-4 ([3]; slurry in toluene, room temperature 7 days): B
- Cocrystal formation, Comparative Example 4-1 ([3]; slurry in water, room temperature 7 days): C
- Cocrystal formation, Comparative Example 4* ([3]; slurry summary: A if a cocrystal was formed in any one of Comparative Examples 4-1 to 4-6): A
- Cocrystal formation, Comparative Example 6 [4]: B
- Cocrystal formation, Example 2 [5]: A
SMILES: O=C(O)CC(=O)O [Malonic acid]
